Data as given in patent publication US8895745B2, “Bicyclic heterocyclic compounds as FGFR inhibitors” (Astex Therapeutics Limited, priority 2006, dated 2014).
Counter-ions that a name gives are not always drawn. Like-named read-outs stand apart in the source and are kept apart here.

Columns and labels:
FGFR3 = FGFR3 (Homo sapiens (Human), UniProt P22607); assay: FGFR3 in vitro kinase inhibitory activity assay (TRF, biotinylated Flt3 substrate); type: biochemical
Protocol: Enzymes (from Upstate) were prepared at 2× final concentration in 1× kinase assay buffer (as described below). Enzymes were then incubated with test compounds, biotinylated Flt3 substrate (biotin—DNEYFYV) (Cell Signalling Technology Inc.) and ATP. The reaction was allowed to proceed for 3 hours (FGFR3) or 2.5 hrs (PDGFR-beta) at room temperature on a plate shaker at 900 rpm before being stopped with 20 μl of 35 mM EDTA, pH 8 (FGFR3) or 55 mM EDTA, pH 8 (PDGFR-beta). […] The plate was then read on a Packard Fusion plate reader in TRF mode.
Kinase Assay buffers were:
A: 50 mM HEPES pH 7.5, 6 mM MnCl2, 1 mM DTT, 0.1% TritonX-100

LP-1 cell line = assay: Cell-based pERK ELISA method, LP-1 cells; details: Homo sapiens
Protocol: LP-1 or JIM-1 multiple myeloma cells were seeded in 96 well plates at 1×10^6 cells/ml in 200 ul per well in serum free media. […] Cells were incubated for 16 h at 37° C. prior to the addition of a test compound for 30 minutes. Test compounds were administered at a 0.1% final DMSO concentration. […] ELISA plates and standards were prepared according o the standard DuoSet protocols and the relative amounts of pERK to total ERK in each sample calculated according to the standard curve.
In particular, compounds of the invention were tested against the LP-1 cell line (DSMZ no.: ACC 41) derived from human multiple myeloma.

[1] = read-out: IC50 less than 1 μM or at least 50% inhibition of the FGFR3 activity at a concentration of 1 μM

Sequence of FGFR3 (P22607 23-806): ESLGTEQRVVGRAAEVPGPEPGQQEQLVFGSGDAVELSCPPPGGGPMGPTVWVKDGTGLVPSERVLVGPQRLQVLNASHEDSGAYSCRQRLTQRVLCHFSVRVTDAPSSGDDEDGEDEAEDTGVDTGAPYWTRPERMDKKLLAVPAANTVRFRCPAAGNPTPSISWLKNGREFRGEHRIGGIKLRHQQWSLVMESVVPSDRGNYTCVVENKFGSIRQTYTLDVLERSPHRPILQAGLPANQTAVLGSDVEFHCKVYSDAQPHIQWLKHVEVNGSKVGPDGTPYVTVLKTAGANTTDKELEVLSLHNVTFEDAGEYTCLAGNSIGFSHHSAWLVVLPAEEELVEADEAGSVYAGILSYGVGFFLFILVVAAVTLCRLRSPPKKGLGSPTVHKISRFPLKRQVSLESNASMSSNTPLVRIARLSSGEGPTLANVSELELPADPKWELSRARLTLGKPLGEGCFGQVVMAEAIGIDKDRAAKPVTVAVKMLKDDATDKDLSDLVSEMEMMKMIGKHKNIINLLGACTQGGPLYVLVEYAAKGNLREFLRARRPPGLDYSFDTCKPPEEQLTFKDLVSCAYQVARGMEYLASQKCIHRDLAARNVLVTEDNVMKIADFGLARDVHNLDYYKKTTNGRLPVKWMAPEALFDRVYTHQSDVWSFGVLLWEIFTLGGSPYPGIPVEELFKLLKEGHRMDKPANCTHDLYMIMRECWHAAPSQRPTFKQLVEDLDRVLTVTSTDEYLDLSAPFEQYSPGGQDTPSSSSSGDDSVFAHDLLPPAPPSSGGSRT

With `Fc1ccc(-c2ccn3c(-c4ccc5[nH]ccc5c4)cnc3c2)cc1` [Example 70, 7-(4-Fluoro-phenyl)-3-(1H-indol-5-yl)-imidazo[1,2-a]pyridine formate salt] the IC50 (FGFR3; [1]) was < 1000 nM.

`Cc1nc(C)n(-c2ccn3c(-c4cccc(NC(=O)NCC(F)(F)F)c4)cnc3c2)n1` [Example 414, 1-{3-[7-(3,5-Dimethyl-[1,2,4]triazol-1-yl)-imidazo[1,2-a]pyridin-3-yl]-phenyl}-3-(2,2,2-trifluoro-ethyl)-urea] was tested, and the IC50 (FGFR3; [1]) was < 1000 nM, the IC50 (FGFR3; read-out: IC50 less than 10 μM or at least 50% inhibition of the FGFR3 activity at a concentration of 10 μM) was < 10000 nM and the IC50 (LP-1 cell line; LP-1, read-out: IC50 less than 1 μM or at least 50% inhibition at a concentration of 1 μM, LP-1 pERK ELISA) was < 1 µM.

In the case of `COc1cncc(-c2ccc3ncc(-c4cccc(NC(C)=O)c4)n3c2)c1` [Example 101, N-{3-[6-(5-Methoxy-pyridin-3-yl)-imidazo[1,2-a]pyridin-3-yl]-phenyl}-acetamide], the IC50 (FGFR3; [1]) is reported as < 1000 nM.

An inhibition at 0.001 µM (FGFR3; % inhibition at 0.001 μM, read-out: FGFR3 IC50 or % inhibition) of 64% and an IC50 (LP-1 cell line; LP-1, read-out: LP-1 pERK ELISA (μM)) of 0.0084 µM were found for `Cc1c(-c2ccn3c(-c4cccc(NC(=O)NCC(F)(F)F)c4)cnc3c2)ncn1C` [Example 374, 1-{3-[7-(1,5-Dimethyl-1H-imidazol-4-yl)-imidazo[1,2-a]pyridin-3-yl]-phenyl}-3-(2,2,2-trifluoro-ethyl)-urea] in this work.

`COc1ccc(-c2ccc3ncc(-c4cccc(NC(C)=O)c4)n3c2)cc1` [Example 100, N-{3-[6-(4-Methoxy-phenyl)-imidazo[1,2-a]pyridin-3-yl]-phenyl}-acetamide formate salt] was tested, and the IC50 (FGFR3; [1]) was < 1000 nM.
